The NIST ThermoML archive (doi:10.1016/j.jct.2004.09.022)
Numbers after ± are expanded uncertainties.

Columns and labels:
[1] = Liquid; for mass density: 293.15 K, 101.33 kPa
[2] = refractive index (Na D-line) (dimensionless); conditions: 293.15 K; 101.33 kPa; Liquid; Standard Abbe refractometry

mass density ([1]; Vibrating tube method) [kg/m3]	Normal boiling temperature ([1]; Fisher boiling point apparatus) [°C]	refractive index [2]	mass density [1] [kg/m3]	Normal boiling temperature [1] [°C]	SMILES
808.4 ± 2.2	131.40 ± 0.2	1.4075 ± 0.0008			CC(C)CCO [3-methylbutan-1-ol]
		1.3324 ± 0.0008	999.9 ± 0.6	100.1 ± 0.2	O [water]
